These results are taken from patent US9212130B2, “Heterocyclic derivative and pharmaceutical composition comprising the same” (SHIONOGI & CO., LTD., priority 2010, dated 2015).

Sequence of human P2X3 receptor (P56373 whole entry): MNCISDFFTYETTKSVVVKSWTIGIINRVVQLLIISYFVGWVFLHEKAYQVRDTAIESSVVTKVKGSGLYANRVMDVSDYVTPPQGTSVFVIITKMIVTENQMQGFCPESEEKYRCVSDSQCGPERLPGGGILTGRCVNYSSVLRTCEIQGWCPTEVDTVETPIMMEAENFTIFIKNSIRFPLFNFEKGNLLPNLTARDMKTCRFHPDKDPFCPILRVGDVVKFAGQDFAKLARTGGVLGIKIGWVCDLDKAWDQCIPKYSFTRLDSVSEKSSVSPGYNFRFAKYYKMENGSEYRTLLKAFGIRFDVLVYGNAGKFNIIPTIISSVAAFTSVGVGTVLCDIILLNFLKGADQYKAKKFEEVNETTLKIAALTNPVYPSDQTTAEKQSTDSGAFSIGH

The assay addresses human P2X3 receptor (Homo sapiens (Human), UniProt P56373). Description: Evaluation of human P2X3 receptor inhibitory activity (ATP-induced Fluo-3 fluorescence, FDSS 3000). The format is cell-based. The settings on record: C6BU-1 cell transfected with human P2X3 receptor gene. As to the method:
The plate was placed in High-Throughput Screening System FDSS 3000 (Hamamatsu Photonics K.K.). […] Five minutes after, 50 nM ATP solution (50 μL) prepared by dilution with the dilution buffer was dispensed through the built-in automatic dispenser, and the measurement of fluorescence intensity was continued for 3 min. For each well, the specific maximum fluorescence intensity was calculated as the ratio of the maximum fluorescence intensity after addition of the ATP solution to the fluorescence intensity at the starting of the measurement. […] FDSS software (Hamamatsu Photonics K.K.) was used for calculation of the specific maximum fluorescence intensity. IC50 was calculated using Microsoft Excel (Microsoft. Corporation) and XLfit (idbs Ltd.)
The aforementioned in mM, μM and nM are each means mmol/L, μmol/L and nmol/L, respectively.
In tables, μM means μmol/L.
As a reminder, the IC50 is the concentration at which inhibition is half-maximal. With `CC(C)Oc1ccc(Nc2ncc(N(C)C(=O)OC(C)(C)C)c(=O)n2Cc2ccc(Cl)cc2)cc1F` [I-208], the IC50 amounted to 50 nM. The value for `Cc1nc2ccc(Nc3ncc(C)c(=O)n3Cc3ccc(Cl)cc3)cc2s1` [I-280] was 237 nM. The value for `CC(C)Oc1ccc(Nc2cc(=O)n(Cc3ccccc3)cc2Cc2ccc(Cl)cc2)cc1Cl` [I-067, 4-(3-chloro-4-isopropoxyphenylamino)-1-benzyl-5-(4-chlorobenzyl)pyridine-2(1H)-one] was 310 nM; that for `CC(C)Oc1ccc(Nc2ncc(C(=O)NNC=O)c(=O)n2Cc2ccc(Cl)cc2)cc1F` [I-266] was 55 nM; that for `CC(C)Oc1ccc(Nc2cc(=O)n(C[C@H](C)C(=O)O)c(=O)n2Cc2ccc(Cl)cc2)cc1` [I-218] was 55 nM.

Molecule `CC(C)Oc1ccc(Nc2ncc(C(=O)NC(CO)CO)c(=O)n2Cc2ccc(Cl)cc2)cc1F` [I-153] came in with an IC50 of 59 nM. The value for `COC(=O)C(C)(C)Cn1c(=O)cc(Nc2cccc(C(F)(F)F)c2)n(Cc2ccc(Cl)cc2)c1=O` [I-107] was 51 nM; that for `CC(C)Oc1ccc(Nc2ncc(N3CCOCC3)c(=O)n2Cc2ccc(Cl)cc2)cc1F` [I-138, 2-(3-fluoro-4-isopropoxyphenylamino)-3-(4-chlorobenzyl)-5-(morpholino)pyrimidine-4(3H)-one] was 201 nM. The value for `COC(=O)[C@@H](C)Cn1c(=O)cc(Nc2ccc(OC(C)C)cc2)n(Cc2ccc(Cl)cc2)c1=O` [I-216] was 105 nM; that for `CCn1c(=O)cc(Nc2ccc(Oc3ccnc(C(=O)OC)c3)cc2)n(Cc2ccc(Cl)cc2)c1=O` [I-316] was 9 nM. The value for `CC(C)Oc1ccc(Nc2ncc(NC(=O)C(=O)O)c(=O)n2Cc2ccc(Cl)cc2)cc1F` [I-254] was 20 nM; that for `COC(=O)c1cncc(Oc2ccc(Nc3ncc(NC(=O)C4CCOCC4)c(=O)n3Cc3ccc(Cl)cc3)cc2)c1` [I-304] was 2 nM. Consider `Cc1nc2ccc(Nc3nc(C)c(C(N)=O)c(=O)n3Cc3ccc(Cl)cc3)cc2s1` [I-347], for which inhibition was half-maximal at 182 nM (IC50).

Regarding `CCOC(=O)/C=C/c1cnc(Nc2ccc(OC(C)C)c(F)c2)n(Cc2ccc(Cl)cc2)c1=O` [I-157], the IC50 is 589 nM. In the case of `Cc1nc2ccc(Nc3nc(=O)c(C(=O)NC4CC4)cn3Cc3ccc(Cl)cc3)cc2s1` [I-309] it was 61 nM; in that of `Cc1nc2ccc(Nc3nc(=O)c(C(=O)NC(C)C)cn3Cc3ccc(Cl)cc3)cc2s1` [I-307], 40 nM; in that of `CC(C)Oc1ccc(Nc2cc(=O)n(CC3COC(C)(C)OC3)c(=O)n2Cc2ccc(Cl)cc2)cc1Cl` [I-094], 5 nM. `CC(C)Oc1ccc(Nc2ncc(Br)c(=O)n2Cc2ccc(Cl)cc2)cc1F` [I-257] displayed an IC50 of 319 nM. In the case of `Cc1nc2ccc(Nc3nc(C)c(Br)c(=O)n3Cc3ccc(Cl)cc3)cc2s1` [I-349] it was 280 nM. In the case of `CC(C)Oc1ccc(/N=c2\[nH]c(O)c(NC(=O)C(C)C)c(=O)n2Cc2ccc(Cl)cc2)cc1` [I-341] it was 681 nM; in that of `CC(C)Oc1ccc(Nc2ncc(C(=O)N(C)CCO)c(=O)n2Cc2ccc(Cl)cc2)cc1F` [I-156], 509 nM. In the case of `CC(C)Oc1ccc(Nc2ncc(NC(=O)C(C)C)c(=O)n2Cc2ccc(Cl)cc2)cc1F` [I-247] it was 19 nM; in that of `COC(=O)c1cccc(Oc2ccc(Nc3ncc(NC(=O)C4CCOCC4)c(=O)n3Cc3ccc(Cl)cc3)cc2)c1` [I-357], 3 nM. `CC(C)Oc1ccc(Nc2cc(=O)n(C[C@H](C)C(=O)O)c(=O)n2Cc2ccc(Cl)cc2)nc1` [I-217] registered an IC50 of 453 nM.

`CCOC(=O)CCC1=CN(Cc2ccc(Cl)cc2)C(Nc2ccc(OC(C)C)c(Cl)c2)=NC1O` (centres unmarked) [I-115] registered an IC50 of 51 nM. The molecule `CCOC(=O)c1cn(Cc2ccccc2)c(=O)cc1Nc1ccc(OC(C)C)c(Cl)c1` [I-046, 4-(3-chloro-4-isopropoxyphenylamino)-1-benzyl-5-(ethoxycarbonyl)pyridine-2(1H)-one] displayed an IC50 of 395 nM.

As to `CC(C)Oc1ccc(Nc2oc(Cc3ccccc3)nc2Cc2ccc(Cl)cc2)cc1F` [I-070, 4-(4-chlorobenzyl)-2-benzyl-5-(3-fluoro-4-isopropoxyphenylamino)oxazole], the IC50 stood at 635 nM.

`CC(C)Oc1ccc(Nc2ncc(NC(=O)C(CO)CO)c(=O)n2Cc2ccc(Cl)cc2)cc1F` [I-288] returned an IC50 of 17 nM. In the case of `CC(C)Oc1ccc(Nc2ncc(NC(=O)c3cc[nH]c(=O)c3)c(=O)n2Cc2ccc(Cl)cc2)cc1F` [I-275] it was 11 nM. In the case of `Cc1ccc(Cc2c(Nc3ccc(OC(C)C)cc3)[nH]c(=O)n(Cc3ccccc3)c2=O)cc1` [I-014] it was 404 nM. In the case of `COC(=O)C(C)(C)Cn1c(=O)cc(Nc2cccc(C(F)(F)F)n2)n(Cc2ccc(Cl)cc2)c1=O` [I-108, 1-(4-chlorobenzyl)-3-(2-methoxycarbonyl-2-methylpropyl)-6-(6-trifluoromethyl-2-pyridylamino)pyrimidine-2,4(1H,3H)-dion] it was 61 nM; in that of `CC(=O)Nc1cnc(Nc2ccc3nc(C)sc3c2)n(Cc2ccc(Cl)cc2)c1=O` [I-297], 112 nM; in that of `COCCCNC(=O)c1cn(Cc2ccc(Cl)cc2)c(Nc2ccc3nc(C)sc3c2)nc1=O` [I-300], 164 nM. Turning to `Cc1nc2ccc(Nc3ncc(NC(=O)OC(C)(C)C)c(=O)n3Cc3ccc(Cl)cc3)cc2s1` [I-318], the IC50 was 9 nM. In the case of `Cc1ccc(Oc2ccc(Nc3ncc(NC(=O)C4COC(C)(C)OC4)c(=O)n3Cc3ccc(Cl)cc3)cc2)cn1` [I-294] it was 9 nM. In the case of `COC(=O)[C@@H](C)Cn1c(=O)cc(Nc2ccc(OC(C)C)c(C)c2)n(Cc2ccc(Cl)cc2)c1=O` [I-212] it was 37 nM.

Turning to `Cc1nc2ccc(Nc3cc(=O)n(CCOC4CCCCO4)c(=O)n3Cc3ccc(Cl)cc3)cc2s1` (centres unmarked) [I-353], the concentration for half-maximal inhibition (IC50) worked out at 9 nM. In the case of `COC(=O)[C@H](C)NC(=O)c1cnc(Nc2ccc(OC(C)C)c(F)c2)n(Cc2ccc(Cl)cc2)c1=O` [I-164] it was 18 nM. In the case of `CC(C)Oc1ccc(Nc2ncc(C(=O)NNC(=O)OC(C)(C)C)c(=O)n2Cc2ccc(Cl)cc2)cc1F` [I-271] it was 29 nM; in that of `COC(=O)C(C)(C)Cn1c(=O)cc(Nc2ccc(OC(C)C)c(Cl)c2)n(Cc2ccc(Cl)cc2)c1=O` [I-010], 10 nM; in that of `CC(C)Oc1ccc(Nc2nc(=O)c3cc(C(F)(F)F)ccc3n2Cc2ccc(Cl)cc2)cc1Cl` [I-227, 1-(4-chlorobenzyl)-2-(3-chloro-4-isopropoxyphenylamine)-6-trifluoromethylquinazoline-4(3H)-one], 974 nM. In the case of `CNc1ncc(Nc2cccc(C(F)(F)F)c2)c(Cc2ccc(Cl)cc2)n1` [I-190] it was 990 nM. Consider `CCn1c(=O)cc(Nc2ccc(Oc3ccnc(C(=O)O)c3)cc2)n(Cc2ccc(Cl)cc2)c1=O` [I-317], for which the IC50 was 3 nM. In the case of `Cc1ccc(Oc2ccc(Nc3ncc(NC(=O)C4CCOCC4)c(=O)n3Cc3ccc(Cl)cc3)cc2)cn1` [I-265] it was 1 nM; in that of `CCOC(=O)c1cn(Cc2ccc(Cl)cc2)c(Nc2ccc(OC(C)C)c(Cl)c2)nc1=O` [I-125], 243 nM.

In turn, `CC(C)Oc1ccc(Nc2[nH]c(=O)n(C)c(=O)c2Cc2ccc(Cl)cc2)cc1F` [I-001] had an IC50 of 901 nM. The molecule `Cc1nc2ccc(Nc3nc(C)c(NC(=O)OC(C)(C)C)c(=O)n3Cc3ccc(Cl)cc3)cc2s1` [I-348] had an IC50 of 105 nM.
